Measured values reported in patent US8772449B2, “Cell-penetrating peptides” (Toray Industries, Inc., priority 2009, dated 2014).
Like-named read-outs stand apart in the source and are kept apart here. Ends that are not written are not given here.

Legend:
[1] = Intranasal administration of interferon β with peptide to rats (plasma interferon β level); settings: Example 6, interferon β 0.18×10^6 IU/kg alone or with 0.5 mM peptide, FIG. 7
nasal cavity = experiment: Evaluation of damage to nasal cavity (LDH leakage into washing solution); settings: Example 9; mixed solution of peptide and insulin, intranasal, washing 15 minutes later, FIG. 11
[2] = Intestinal administration of insulin with peptide (ileal loop) to rats; assay type: in vivo; settings: Example 8, insulin 50 IU/kg with 0.5 mM peptide, male SD rat, FIG. 10
Description: A silicone tube was […] cm distant from the ileocecal junction toward the ileum, and a feeding needle was inserted at a position about 10 cm upward therefrom. Further, sutures were passed through an area of 6 cm between these. From the feeding needle, 20 ml of phosphate buffered saline (PBS) at pH 7.4 prewarmed to 37° C. was fed at a flow rate of 5 ml/min. to allow discharging of the contents, and the silicone tube was plugged, followed by administering 1 ml of PBS prewarmed to 37° C. from the feeding needle and keeping it retained for 30 minutes. After the administration, the feeding needle was quickly plugged and the intestinal tract was returned into the abdominal cavity, followed by closing the site of incision with a clip and allowing the rat to keep still. […] The rat during the experiment was fixed on its back on a hot plate kept at 37° C. by a hot-water circulating pump to regulate the body temperature. […] Also for rats to which the same quantity of the insulin solution alone was subcutaneously administered, the blood collection and the measurement were carried out in the same manner.

[3] = Intranasal administration of insulin with peptide to rats (blood glucose, plasma insulin, bioavailability, AUC); settings: Example 4, insulin 1 IU/kg alone or mixed with 0.5 mM peptide (L-body), male SD rat, FIG. 5
[4] = Intranasal administration of exendin-4 with peptide to rats (plasma exendin-4 level); settings: Example 7, exendin-4 0.25 mg/kg alone or with 0.5 mM peptide, FIG. 8
HeLa cells [5] = experiment: Localization of rhodamine-labeled insulin in HeLa cells by confocal laser microscope; assay type: cell-based; settings: Example 2, peptide added together with rhodamine-labeled insulin, FIG. 12
Description: (§1) The rhodamine-labeled insulin was prepared by the following method. […] To the resulting solution, 4 mg of NHS-rhodamine (Pierce) dissolved in 0.5 ml of DMSO was added, and the reaction was allowed to proceed at room temperature overnight.

HeLa cells [6] = experiment: Evaluation of peptide permeability into cells (fluorescein-labeled peptide incorporated into HeLa cells); assay type: cell-based
Description: In DMEM medium supplemented with 10% FBS, 0.2 ml of HeLa cells were plated on a 96-well glass bottom plate, and the cells were cultured at 37° C. for 48 to 72 hours to allow the cells to adhere to the bottom surface. After 3 times of washing with 200 μl of PBS, 50 μl of DMEM medium containing each of the peptides of SEQ ID NOs:1 to 6 labeled with fluorescein at the amino terminus (contract synthesis by Sigma-Genosys) at a final concentration of 5 μM and FBS at a final concentration of 10% was added to each well. The plate was incubated in a CO2 incubator for 3 hours and then washed 3 times with DMEM medium supplemented with 10% FBS, followed by addition of 50 μl of a lysis solution (10 mM Tris-HCl, 5 mM EDTA, 100 mM NaCl, 1% SDS, 100 μg/ml proteinase K) and 1 hour of incubation at room temperature, to decompose the cells and the peptides incorporated into the cells. The whole lysis solution was recovered, and the amount of fluorescein incorporated into the cells was measured using a fluorescence intensity measuring apparatus (HORIBA FLUOROMAX-3) at an excitation wavelength of 494 nm and a fluorescence wavelength of 512 nm.
(§2) Further, the amount of fluorescein incorporated into the cells was measured by the same method as in Example 1.

HeLa cells [7] = experiment: Evaluation of promotion of transfer of polystyrene beads into cells; assay type: cell-based; settings: Example 3, beads alone or with peptide 1 μM, 3 hours, FIG. 3
Description: In DMEM medium supplemented with 10% FBS, 0.2 ml of HeLa cells were plated on a 96-well glass bottom plate, and the cells were cultured at 37° C. for 48 to 72 hours to allow the cells to adhere to the bottom surface. After 3 times of washing with 200 μl of PBS, 50 μl of DMEM medium containing each of the peptides of SEQ ID NOs:1 to 6 labeled with fluorescein at the amino terminus (contract synthesis by Sigma-Genosys) at a final concentration of 1 μM, fluorescent polystyrene beads (Fluorospheres Carboxylated Microbeads, 0.1 μm; manufactured by Molecular probes, Inc.) at a final concentration of 1 μl/well and 10% FBS was added to each well. The plate was incubated in a CO2 incubator for 3 hours and then washed 3 times with DMEM medium supplemented with 10% FBS, followed by addition of 50 μl of a lysis solution (10 mM Tris-HCl, 5 mM EDTA, 100 mM NaCl, 1% SDS, 100 μg/ml proteinase K) and 1 hour of incubation at room temperature, to decompose the cells. The whole lysis solution was recovered, and the amount of fluorescent polystyrene beads incorporated into the cells was measured using a fluorescence intensity measuring apparatus at an excitation wavelength of 580 nm and a fluorescence wavelength of 605 nm.

HeLa cells [8] = experiment: Evaluation of promotion of insulin transfer into cells (rhodamine-labeled insulin incorporated, fluorescence intensity of lysate); assay type: cell-based; settings: for incorporation of rhodamine-labeled insulin into the cells (in words): Example 2, rhodamine-labeled human insulin 100 μg/ml alone or with peptide, 3 hours, FIG. 2
Description: In DMEM medium supplemented with 10% FBS, 0.2 ml of HeLa cells were plated on a 96-well glass bottom plate, and the cells were cultured at 37° C. for 48 to 72 hours to allow the cells to adhere to the bottom surface.
as §1, §2

[9] = rat, in vivo, 0.25 mg/kg

Substance: RWFKIQMQIRRWKNKK [SEQ ID NO:1, R W F K I Q M Q I R R W K N K K]
- plasma interferon β level after intranasal administration [1]: transfer of interferon β into the blood from immediately after the administration
- release of LDH from the nasal cavity, compared to 5% (w/v) sodium taurodeoxycholate (nasal cavity): significantly lower
- blood insulin level after intestinal administration, compared to insulin alone [2]: evident increase
- blood insulin level after intranasal administration [3]: transfer of insulin into the blood was observed from immediately after the administration
- plasma exendin-4 level after intranasal administration [4]: transfer of exendin-4 into the blood from immediately after the administration

Substance: SEQ ID NO:6: Random peptide, cell membrane non-permeable; sequence not printed (EYDLSTAGGAAAC; Synthetic peptide random peptide)
- permeation of rhodamine-labeled insulin into the cells, confocal laser microscope (HeLa cells [5]): did not allow permeation
- incorporation of fluorescein-labeled peptide into the cells (in words) (HeLa cells [6]; Example 1, fluorescein-labeled peptide 5 μM, 3 hours, FIG. 1): hardly incorporated into the cells
- fluorescein incorporated into the cells, of the fluorescein added (HeLa cells [6]; Example 12, fluorescein-labeled peptides, incubation 5 hours, FIG. 15): about 0.2%
- incorporation of fluorescent polystyrene beads into the cells (in words) (HeLa cells [7]): almost no incorporation
- incorporation of rhodamine-labeled insulin into the cells (in words) (HeLa cells [8]): almost no incorporation
- rhodamine-labeled insulin incorporated into the cells, of the amount added (HeLa cells [8]; Example 12, fluorescein-labeled peptides added together with rhodamine-labeled insulin, incubation 5 hours, FIG. 16): about 0.2%

Substance: KWFRIQMQIKKWRNRR [SEQ ID NO:4]
- plasma interferon β level after intranasal administration [1]: transfer of interferon β into the blood from immediately after the administration
- blood insulin level after intestinal administration, compared to insulin alone [2]: evident increase

Substance: exendin-4
- plasma exendin-4 level after intranasal administration [9]: almost no increase

Substance: rhodamine-labeled insulin: human insulin reacted with NHS-rhodamine (Pierce); fluorescent probe, added alone
- incorporation of rhodamine-labeled insulin into the cells (in words) (HeLa cells [8]): almost no incorporation
